# “And” between values parts separate entries of the source, which are not always exact repeats. Equal values may be shown once.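 Cultured in 96-well plates, cells were exposed to test compound for 48 hours across five concentrations. GI50: concentration for 50% inhibition of growth.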 The source made the active and inactive calls. No stated cut-off is given here; in the data, active = GI50 up to about 1.1 µM and inactive = higher.
# Experiments:
# Experiment in all cases: growth of human tumour cells (NCI), 48 h
# [1] = test system: SN12C
# [2] = test system: K562
# [3] = test system: SR
# [4] = test system: EKVX
# [5] = test system: HCT-15
# [6] = test system: MOLT-4
# [7] = test system: T47D
# [8] = test system: COLO 205
# [9] = test system: OVCAR-4
# [10] = test system: OVCAR-8
# [11] = test system: CAKI-1
# [12] = test system: SW-620
# [13] = test system: RXF 393
# [14] = test system: IGROV-1
# [15] = test system: MCF7
# [16] = test system: A549
# [17] = test system: KM12
# [18] = test system: TK-10
# [19] = test system: Hs-578T
# [20] = test system: OVCAR-5
# [21] = test system: ACHN
# [22] = test system: HCT-116
# [23] = test system: SF-268
# [24] = test system: PC-3
# [25] = test system: SF-539
# [26] = test system: HCC 2998
# [27] = test system: DU-145
# [28] = test system: SK-OV-3
# [29] = test system: NCI-H226
# [30] = test system: HOP-92
# [31] = test system: SNB-75
# [32] = test system: HL-60
# [33] = test system: SF-295
# [34] = test system: OVCAR-3
# [35] = test system: NCI-H522
# [36] = test system: MDA-MB-231
# [37] = test system: SNB-19
# [38] = test system: CCRF-CEM
# [39] = test system: NCI/ADR-RES
# [40] = test system: NCI-H23
# [41] = test system: 786-0
# [42] = test system: UACC-257
# [43] = test system: Malme-3M
# [44] = test system: NCI-H460
# [45] = test system: SK-MEL-28
# [46] = test system: M14
# [47] = test system: HOP-62
# [48] = test system: SK-MEL-2
# [49] = test system: SK-MEL-5
# [50] = test system: UO-31
# [51] = test system: UACC-62
# [52] = test system: HT-29
# [53] = test system: MDA-MB-435
# [54] = test system: U-251
# [55] = test system: RPMI-8226
# [56] = test system: MDA-N
# [57] = test system: A498
smiles,measurement,setting,value
COc1ccc(C2c3c(-c4ccccc4)nn(-c4ccccc4)c3Oc3ncn4nc(CC#N)nc4c32)cc1OC (centres undefined),GI50,[1],15 µM (inactive) and > 20.1 µM (inactive)
same,GI50,[2],22.6 µM (inactive) and > 23.7 µM (inactive)
same,GI50,[3],5.57 µM (inactive)
same,GI50,[4],7.89 µM (inactive)
same,GI50,[5],14 µM and 20.3 µM
same,GI50,[6],> 100 µM (inactive)
same,GI50,[7],10.1 µM (inactive)
Oc1c(Cl)c(Cl)c(O)c(-c2cnc(-c3ncc(-c4c(O)c(Cl)c(Cl)c(O)c4Cl)s3)s2)c1Cl,GI50,[8],28.6 µM (inactive)
same,GI50,[9],80.5 µM (inactive)
same,GI50,[10],16.7 µM (inactive)
same,GI50,[11],20.9 µM (inactive)
same,GI50,[12],21.4 µM (inactive)
same,GI50,[13],18.9 µM (inactive)
same,GI50,[14],16.1 µM (inactive)
same,GI50,[15],18.2 µM (inactive)
same,GI50,[16],29.6 µM (inactive)
same,GI50,[17],29.2 µM (inactive)
same,GI50,[18],26.7 µM (inactive)
same,GI50,[19],15.2 µM (inactive)
same,GI50,[20],15.5 µM (inactive)
same,GI50,[21],23.3 µM (inactive)
same,GI50,[1],27.4 µM (inactive)
same,GI50,[2],34.1 µM (inactive)
same,GI50,[22],21.1 µM (inactive)
same,GI50,[23],22 µM (inactive)
same,GI50,[24],29.4 µM (inactive)
same,GI50,[25],24.3 µM (inactive)
same,GI50,[26],36.6 µM (inactive)
same,GI50,[27],49.8 µM (inactive)
same,GI50,[28],41.2 µM (inactive)
same,GI50,[29],3.96 µM (inactive)
same,GI50,[30],25 µM (inactive)
same,GI50,[31],28.1 µM (inactive)
same,GI50,[32],33.3 µM (inactive)
same,GI50,[33],19.9 µM (inactive)
same,GI50,[34],21.4 µM (inactive)
same,GI50,[35],2.1 µM (inactive)
same,GI50,[36],20.7 µM (inactive)
same,GI50,[37],27.9 µM (inactive)
same,GI50,[38],8.53 µM (inactive)
same,GI50,[39],25.3 µM (inactive)
same,GI50,[40],19.3 µM (inactive)
same,GI50,[41],25.1 µM (inactive)
same,GI50,[3],35.6 µM (inactive)
same,GI50,[42],29 µM (inactive)
same,GI50,[43],29.4 µM (inactive)
same,GI50,[44],30.1 µM (inactive)
same,GI50,[45],29.6 µM (inactive)
same,GI50,[46],19.5 µM (inactive)
same,GI50,[47],54.2 µM (inactive)
same,GI50,[4],21.2 µM (inactive)
same,GI50,[48],18.4 µM (inactive)
same,GI50,[49],7.8 µM (inactive)
same,GI50,[5],13.6 µM
same,GI50,[50],21.1 µM (inactive)
same,GI50,[51],19.7 µM (inactive)
same,GI50,[52],35.6 µM (inactive)
same,GI50,[53],21.9 µM (inactive)
same,GI50,[6],> 100 µM (inactive)
same,GI50,[54],22.6 µM (inactive)
same,GI50,[7],29.9 µM (inactive)
CC1OC(c2ccc3c(OCc4ccccc4)cccc3c2O)CC(OCc2ccccc2)[C@H]1OCc1ccccc1 (some centres undefined),GI50,[8],> 10 µM (inactive)
same,GI50,[10],> 10 µM (inactive)
same,GI50,[11],> 10 µM (inactive)
same,GI50,[12],> 10 µM (inactive)
same,GI50,[13],> 10 µM (inactive)
same,GI50,[14],> 10 µM (inactive)
same,GI50,[15],> 10 µM (inactive)
same,GI50,[16],> 10 µM (inactive)
same,GI50,[17],> 10 µM (inactive)
same,GI50,[18],> 10 µM (inactive)
same,GI50,[1],> 10 µM (inactive)
same,GI50,[2],> 10 µM (inactive)
same,GI50,[23],> 10 µM (inactive)
same,GI50,[24],> 10 µM (inactive)
same,GI50,[26],> 10 µM (inactive)
same,GI50,[27],> 10 µM (inactive)
same,GI50,[28],> 10 µM (inactive)
same,GI50,[31],> 10 µM (inactive)
same,GI50,[32],> 10 µM (inactive)
same,GI50,[55],> 10 µM (inactive)
same,GI50,[33],> 10 µM (inactive)
same,GI50,[56],> 10 µM (inactive)
same,GI50,[36],> 10 µM (inactive)
same,GI50,[38],> 10 µM (inactive)
same,GI50,[40],> 10 µM (inactive)
same,GI50,[41],> 10 µM (inactive)
same,GI50,[42],> 10 µM (inactive)
same,GI50,[43],> 10 µM (inactive)
same,GI50,[45],> 10 µM (inactive)
same,GI50,[46],> 10 µM (inactive)
same,GI50,[47],> 10 µM (inactive)
same,GI50,[4],> 10 µM (inactive)
same,GI50,[49],> 10 µM (inactive)
same,GI50,[5],> 10 µM
same,GI50,[51],> 10 µM (inactive)
same,GI50,[52],> 10 µM (inactive)
same,GI50,[6],> 10 µM (inactive)
same,GI50,[7],> 10 µM (inactive)
Cc1ncc([N+](=O)[O-])n1CC(O)Cn1cnc([N+](=O)[O-])n1 (centres undefined),GI50,[10],> 100 µM (inactive)
same,GI50,[12],> 100 µM (inactive)
same,GI50,[15],> 100 µM (inactive)
same,GI50,[16],> 100 µM (inactive)
same,GI50,[17],> 100 µM (inactive)
same,GI50,[18],> 10 µM (inactive)
same,GI50,[19],> 100 µM (inactive)
same,GI50,[20],> 100 µM (inactive)
same,GI50,[21],> 100 µM (inactive)
same,GI50,[1],> 100 µM (inactive)
same,GI50,[2],> 100 µM (inactive)
same,GI50,[22],> 100 µM (inactive)
same,GI50,[23],> 100 µM (inactive)
same,GI50,[24],> 100 µM (inactive)
same,GI50,[25],> 100 µM (inactive)
same,GI50,[26],> 100 µM (inactive)
same,GI50,[29],> 100 µM (inactive)
same,GI50,[57],2.84 µM (inactive)
same,GI50,[31],> 100 µM (inactive)
same,GI50,[32],64.1 µM (inactive)
same,GI50,[55],> 100 µM (inactive)
same,GI50,[33],> 100 µM (inactive)
same,GI50,[34],> 100 µM (inactive)
same,GI50,[35],> 100 µM (inactive)
same,GI50,[38],> 100 µM (inactive)
same,GI50,[40],> 100 µM (inactive)
same,GI50,[41],> 100 µM (inactive)
same,GI50,[3],> 100 µM (inactive)
same,GI50,[42],> 100 µM (inactive)
same,GI50,[43],55.1 µM (inactive)
same,GI50,[44],> 100 µM (inactive)
same,GI50,[45],> 100 µM (inactive)
same,GI50,[47],> 100 µM (inactive)
same,GI50,[4],> 100 µM (inactive)
same,GI50,[48],> 100 µM (inactive)
same,GI50,[49],> 100 µM (inactive)
same,GI50,[5],> 100 µM
same,GI50,[52],> 100 µM (inactive)
same,GI50,[6],> 100 µM (inactive)
same,GI50,[54],> 100 µM (inactive)
O=C(CCCn1cnc([N+](=O)[O-])n1)NCCCn1ccnc1[N+](=O)[O-],GI50,[10],> 100 µM (inactive)
same,GI50,[12],68.2 µM (inactive)
same,GI50,[15],> 100 µM (inactive)
same,GI50,[16],> 100 µM (inactive)
same,GI50,[17],> 100 µM (inactive)
same,GI50,[18],99.8 µM (inactive)
same,GI50,[19],> 100 µM (inactive)
same,GI50,[20],> 100 µM (inactive)
same,GI50,[21],> 100 µM (inactive)
same,GI50,[1],> 100 µM (inactive)
same,GI50,[2],> 100 µM (inactive)
same,GI50,[22],> 100 µM (inactive)
same,GI50,[23],> 100 µM (inactive)
same,GI50,[24],> 100 µM (inactive)
same,GI50,[25],> 100 µM (inactive)
same,GI50,[26],> 100 µM (inactive)
same,GI50,[29],> 100 µM (inactive)
same,GI50,[57],9.35 µM (inactive)
same,GI50,[31],> 100 µM (inactive)
same,GI50,[32],78.9 µM (inactive)
same,GI50,[55],> 100 µM (inactive)
same,GI50,[33],> 100 µM (inactive)
same,GI50,[34],> 100 µM (inactive)
same,GI50,[35],> 100 µM (inactive)
same,GI50,[38],> 100 µM (inactive)
same,GI50,[40],> 100 µM (inactive)
same,GI50,[41],> 100 µM (inactive)
same,GI50,[3],> 100 µM (inactive)
same,GI50,[42],> 100 µM (inactive)
same,GI50,[43],83.2 µM (inactive)
same,GI50,[44],> 100 µM (inactive)
same,GI50,[45],> 100 µM (inactive)
same,GI50,[47],> 100 µM (inactive)
same,GI50,[4],> 100 µM (inactive)
same,GI50,[48],32.4 µM (inactive)
same,GI50,[49],61.8 µM (inactive)
same,GI50,[5],> 100 µM
same,GI50,[52],> 100 µM (inactive)
same,GI50,[6],> 100 µM (inactive)
same,GI50,[54],> 100 µM (inactive)

# Reference: ChEMBL document CHEMBL1201862, “PubChem BioAssay data set” (2004)
